This passage reports IC50 results from patent publication US9776972B2, “Pyrazole derivatives as arginine methyltransferase inhibitors and uses thereof” (priority 2013, dated 2017).

Structures can show the parent of a compound that is named as a salt.

For the experiment, the target named is T1, Human CARM1 (PRMT4) (Homo sapiens, UniProt Q86X55).
T1 construct: Flag-CARM1-His; made in house; host or cells: HEK 293F cells (BacMam baculovirus)
T1 sequence (Q86X55 1-585 isoform Q86X55-1): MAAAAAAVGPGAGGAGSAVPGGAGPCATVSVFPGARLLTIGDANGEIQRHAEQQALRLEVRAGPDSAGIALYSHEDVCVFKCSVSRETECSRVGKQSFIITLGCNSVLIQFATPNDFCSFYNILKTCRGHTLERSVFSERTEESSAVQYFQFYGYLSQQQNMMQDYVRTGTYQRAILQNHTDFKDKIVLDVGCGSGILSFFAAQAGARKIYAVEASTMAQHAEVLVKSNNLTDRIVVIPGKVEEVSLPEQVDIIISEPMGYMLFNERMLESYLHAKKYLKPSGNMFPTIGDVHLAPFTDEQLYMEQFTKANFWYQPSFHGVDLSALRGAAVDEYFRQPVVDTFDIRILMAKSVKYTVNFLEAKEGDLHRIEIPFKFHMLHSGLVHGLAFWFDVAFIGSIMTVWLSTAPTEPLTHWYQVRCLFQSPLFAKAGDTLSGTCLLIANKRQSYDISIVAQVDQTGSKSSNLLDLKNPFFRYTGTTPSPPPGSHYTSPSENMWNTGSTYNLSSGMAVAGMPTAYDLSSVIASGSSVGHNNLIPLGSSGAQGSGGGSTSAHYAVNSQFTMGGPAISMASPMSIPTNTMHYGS
The experiment can be described thus: CARM1 Biochemical Assay (3H-SAM Flashplate, peptide substrate). To be noted: single experiment or average of multiple experiments. The text has this:
S-adenosylmethionine (SAM), S-adenosylhomocysteine (SAH), bicine, Tween20, dimethylsulfoxide (DMSO), bovine skin gelatin (BSG), sodium butyrate and Tris(2-carboxyethyl)phosphine hydrochloride solution (TCEP) were purchased from Sigma-Aldrich at the highest level of purity possible. ^3H-SAM was purchase from American Radiolabeled Chemicals with a specific activity of 80 Ci/mmol. 384-well streptavidin Flashplates were purchased from PerkinElmer.
Peptide representative of human histone H3 residues 16-30 was synthesized with an N-terminal linker-affinity tag motif and a C-terminal amide cap by 21st Century Biochemicals. […] The sequence was Biot-Ahx-[…]-amide and contained a monomethylated arginine at position 26 (SEQ ID NO.: 14).
Recombinant baculovirus were generated according to Bac-to-Bac kit instructions (Life Technologies). […] Infections were carried out at 37° C. for 48 hours, harvested by centrifugation, and stored at −80° C. for purification.
Column was washed with 500 mM NaCl in buffer A and Flag-CARM1-His was eluted with 200 ug/ml FLAG peptide in buffer A. Pooled fractions were dialyzed in 20 mM Tris, 150 mM NaCl, 5% glycerol and 1 mM DTT, pH 7.8.
General Procedure for CARM1 Enzyme Assays on Peptide Substrates.
The assays were all performed in a buffer consisting of 20 mM Bicine (pH=7.6), 1 mM TCEP, 0.005% BSG, and 0.002% Tween 20, prepared on the day of use. […] DMSO (1 ul) was added to Columns 11, 12, 23, 24, rows A-H for the maximum signal control and 1 ul of SAH, a known product and inhibitor of CARM1, was added to columns 11, 12, 23, 24, rows I-P for the minimum signal control. A cocktail (40 ul) containing the CARM1 enzyme was added by Multidrop Combi (Thermo-Fisher). The compounds were allowed to incubate with CARM1 for 30 min at room temperature, then a cocktail (10 ul) containing ^3H-SAM and peptide was added to initiate the reaction (final volume=51 ul). […] The assays were stopped by the addition of non-radiolabeled SAM (10 ul) to a final concentration of 300 uM, which dilutes the ^3H-SAM to a level where its incorporation into the peptide substrate is no longer detectable. 50 ul of the reaction in the 384-well polypropylene plate was then transferred to a 384-well Flashplate and the biotinylated peptides were allowed to bind to the streptavidin surface for at least 1 hour before being washed once with 0.1% Tween20 in a Biotek ELx405 plate washer. The plates were then read in a PerkinElmer TopCount plate reader to measure the quantity of ^3H-labeled peptide bound to the Flashplate surface, measured as disintegrations per minute (dpm) or alternatively, referred to as counts per minute (cpm).
Where dpm=disintegrations per minute, cmpd=signal in assay well, and min and max are the respective minimum and maximum signal controls.
Where top and bottom are the normally allowed to float, but may be fixed at 100 or 0 respectively in a 3-parameter fit. The Hill Coefficient normally allowed to float but may also be fixed at 1 in a 3-parameter fit. Y is the % inhibition and X is the compound concentration.

As usually defined, the IC50 is the point on the concentration scale where inhibition reaches its midpoint. Read a high IC50 as weaker potency. As to `CCCc1ccc(-c2n[nH]cc2CN(C)CCNC)cc1` [Compound 20], it took 278 nM to reach half-maximal inhibition (IC50). For `CNCCN(C)Cc1c[nH]nc1-c1cccc([N+](=O)[O-])c1` [Compound 21], the IC50 was 2090 nM. Take `CNCCN(C)Cc1c[nH]nc1-c1cccc(C#N)c1` [Compound 22]: half-maximal inhibition (IC50) required 1370 nM. On to `CNCCN(C)Cc1c[nH]nc1-c1ccccc1OC` [Compound 23], for which the midpoint of inhibition, the IC50, lay at 1760 nM. For `CNCCN(C)Cc1c[nH]nc1-c1cccc(OC)c1` [Compound 24], half-maximal inhibition (IC50) required 1210 nM. This IC50 and that of the compound before are within 1.5-fold of each other.

On to `CNCCN(C)Cc1c[nH]nc1-c1ccc(OC)cc1` [Compound 25], for which the IC50 amounted to 1560 nM. The IC50 values of the last two compounds are within 1.5-fold of each other. Consider `CNCCN(C)Cc1c[nH]nc1-c1cccc(O)c1` [Compound 26], for which the IC50 is 2340 nM. As to `CNCCN(C)Cc1c[nH]nc1-c1ccc(O)cc1` [Compound 27], the half-inhibitory concentration (IC50) was 1710 nM.

Compound `CNCCN(C)Cc1c[nH]nc1-c1ccc(CO)cc1` [Compound 28] had a concentration for half-maximal inhibition (IC50) of 337 nM. As to `CNCCN(C)Cc1c[nH]nc1-c1ccc(C)cc1C` [Compound 29], the IC50 turned out to be 6300 nM. `CNCCN(C)Cc1cn(CCCC(O)CO)nc1-c1ccc(F)cc1` (stereo not shown) [Compound 30]: the midpoint of inhibition, the IC50, lay at 3680 nM.

Turning to `CNCCN(C)Cc1cnn(CCCC(O)CO)c1-c1ccc(F)cc1` (stereo not shown) [Compound 31], the IC50 stood at 1840 nM.

The compound `CNCCN(C)Cc1c[nH]nc1-c1ccc(N)cc1` [Compound 33] came in with an IC50 of 1380 nM.

The compound `CNCCN(C)Cc1c[nH]nc1-c1ccc(Oc2ccccc2)cc1` [Compound 37] displayed an IC50 of 15.2 nM.

Consider `CCNC(=O)c1cccc(-c2n[nH]cc2CN(C)CCNC)c1` [Compound 43], for which the concentration for half-maximal inhibition (IC50) turned out to be 4960 nM. Against the preceding compound, the IC50 is about 330-fold higher. `CNCCN(C)Cc1c[nH]nc1-c1ccc(C(=O)c2ccccc2)cc1` [Compound 45] returned an IC50 of 42.9 nM.

With `CNCCN(C)Cc1c[nH]nc1-c1ccc(F)cc1F` [Compound 49], the IC50 came to 5040 nM. Compared with the last compound, the IC50 is about 120-fold higher.

In turn, `CNCCN(C)Cc1c[nH]nc1-c1cc(F)ccc1F` [Compound 50] displayed an IC50 of 4320 nM.

In turn, `CNCCN(C)Cc1c[nH]nc1-c1ccc(F)c(F)c1` [Compound 51] came in with an IC50 of 625 nM. Turning to `CNCCN(C)Cc1c[nH]nc1-c1ccc(OC)c(F)c1` [Compound 52], 1500 nM corresponded to half-maximal inhibition (IC50).

With `CNCCN(C)Cc1c[nH]nc1-c1ccc(OC)cc1OC` [Compound 55], it took 4200 nM to reach half-maximal inhibition (IC50). Take `CNCCN(C)Cc1c[nH]nc1-c1cccc2ccccc12` [Compound 57]: the IC50 is 1310 nM.

Compound `CNCCN(C)Cc1c[nH]nc1-c1ccc2ccccc2c1` [Compound 58] came in with an IC50 of 582 nM. Regarding `CNCCN(C)Cc1cn(CCC(O)CO)nc1-c1ccc(F)cc1` (stereo not shown) [Compound 59], the IC50 stood at 4590 nM.

`CCN(CCN)Cc1c[nH]nc1-c1ccc(F)cc1` [Compound 62] displayed a 50% inhibitory concentration (IC50) of 672 nM.

As to `CN(CCN)Cc1cnn(CCO)c1-c1ccc(F)cc1` [Compound 65], the IC50 came to 8930 nM. Compared with the last compound, the IC50 is about 13-fold higher. The same measure for `CN(CCN)Cc1cn(CCO)nc1-c1ccc(F)cc1` [Compound 66]: 3790 nM.

`CN(CCN)Cc1c[nH]nc1-c1ccc(C#N)cc1` [Compound 68]: the concentration for half-maximal inhibition (IC50) was 802 nM. The same measure for `CNCCN(C)Cc1cn(C)nc1-c1ccc(OC(C)C)cc1` [Compound 243, N^1-((3-(4-isopropoxyphenyl)-1-methyl-1H-pyrazol-4-yl)methyl)-N1,N2-dimethylethane-1,2-diamine]: 301 nM; for `CNCCN(C)Cc1cn(Cc2cccnc2)nc1-c1ccc(OC(C)C)cc1` [Compound 246]: 2430 nM; for `CNCCN(C)Cc1cn(Cc2ccccn2)nc1-c1ccc(OC(C)C)cc1` [Compound 247]: 2820 nM. The same measure for `CNCCN(C)Cc1cn(CC(=O)OC)nc1-c1ccc(OC(C)C)cc1` [Compound 248]: 3750 nM; for `CNCCN(C)Cc1cnn(CC(=O)OC)c1-c1ccc(OC(C)C)cc1` [Compound 249]: 9630 nM; for `CNCCN(C)Cc1cn(CC(N)=O)nc1-c1ccc(OC(C)C)cc1` [Compound 251]: 2980 nM. `CCn1ncc(CN(C)CCNC)c1-c1ccc(OC(C)C)cc1` [Compound 252] had an IC50 of 531 nM. The same measure for `CNCCN(C)Cc1cn(CCOC)nc1-c1ccc(OC(C)C)cc1` [Compound 253, N1-((3-(4-isopropoxyphenyl)-1-(2-methoxyethyl)-1H-pyrazol-4-yl)methyl)-N1,N2-dimethylethane-1,2-diamine hydrochloride]: 2260 nM; for `CNCCN(C)Cc1cn(C2CCC2)nc1-c1ccc(OC(C)C)cc1` [Compound 254, N1-((1-cyclobutyl-3-(4-isopropoxyphenyl)-1H-pyrazol-4-yl)methyl)-N1,N2-dimethylethane-1,2-diamine hydrochloride]: 413 nM; for `CNCCN(C)Cc1cnn(C2CCCC2)c1-c1ccc(OC(C)C)cc1` [Compound 255]: 1170 nM. In turn, `CNCCN(C)Cc1cn(C2CCCCC2)nc1-c1ccc(OC(C)C)cc1` [Compound 256] yielded an IC50 of 571 nM. On to `C=CC(=O)Nc1cccc(-c2[nH]ncc2CN(C)CCNC)c1` [Compound 258], for which the IC50 stood at 1700 nM.
